Measured values taken from the NIST ThermoML archive (doi:10.1021/je7006742).
± gives the expanded uncertainty stated by the source.

Key:
[1] = 101 kPa, Liquid
[2] = xn = mol fraction of the nth substance listed; conditions: 101 kPa, Liquid

COc1ccc(C=O)cc1 [4-methoxybenzaldehyde]
[1]
Conditions	mass density [kg/m3]	viscosity [mPa·s]
298.15 K	1120 ± 3	3.706 ± 0.33
308.15 K	1112 ± 3	2.83 ± 0.25
318.15 K	1105 ± 3	2.232 ± 0.2

COc1ccc(C=O)cc1 [4-methoxybenzaldehyde] + C=CC#N
[2]
Conditions	mass density, 298.15 K [kg/m3]	mass density, 308.15 K [kg/m3]	mass density, 318.15 K [kg/m3]	speed of sound, 298.15 K [m/s]	viscosity, 298.15 K [mPa·s]	viscosity, 308.15 K [mPa·s]	viscosity, 318.15 K [mPa·s]
x2 = 0	1120 ± 3	1112 ± 3	1105 ± 3	–	3.706 ± 0.33	2.83 ± 0.25	2.232 ± 0.2
x2 = 0.222	1079 ± 2	1072 ± 3	1066 ± 3	1446.6 ± 12	2.035 ± 0.19	1.828 ± 0.17	1.53 ± 0.14
x2 = 0.391	1040 ± 2	1034 ± 2	1029 ± 3	1384.8 ± 11	1.341 ± 0.13	1.226 ± 0.12	1.095 ± 0.11
x2 = 0.524	1003 ± 2	997 ± 2	992 ± 3	1345.8 ± 11	0.865 ± 0.087	0.852 ± 0.086	0.798 ± 0.081
x2 = 0.631	968 ± 2	962 ± 2	957 ± 2	1310 ± 11	0.742 ± 0.077	0.678 ± 0.071	0.644 ± 0.068
x2 = 0.72	934 ± 2	930 ± 2	924 ± 2	1277.6 ± 10	0.55 ± 0.06	0.538 ± 0.059	0.515 ± 0.057
x2 = 0.794	903 ± 2	898 ± 2	893 ± 2	1244.6 ± 10	0.545 ± 0.06	0.469 ± 0.053	0.443 ± 0.051
x2 = 0.857	873 ± 2	868 ± 2	864 ± 2	1217.8 ± 10	0.415 ± 0.048	0.404 ± 0.047	0.39 ± 0.046
x2 = 0.911	845 ± 2	840 ± 2	835 ± 2	1201.6 ± 10	0.435 ± 0.05	0.369 ± 0.044	0.37 ± 0.044
x2 = 0.958	819 ± 2	813 ± 2	808 ± 2	–	0.379 ± 0.045	0.333 ± 0.041	0.322 ± 0.04
x2 = 0.959	–	–	–	1186.8 ± 9.9	–	–	–

O=CC=Cc1ccccc1 [(E)-3-phenyl-2-propanal]
[1]
Conditions	mass density [kg/m3]	viscosity [mPa·s]
298.15 K	1046 ± 2	3.478 ± 0.31
308.15 K	1039 ± 3	2.688 ± 0.24
318.15 K	1032 ± 3	2.296 ± 0.21

O=CC=Cc1ccccc1 [(E)-3-phenyl-2-propanal] + C=CC#N
[2]
Conditions	mass density, 298.15 K [kg/m3]	mass density, 308.15 K [kg/m3]	mass density, 318.15 K [kg/m3]	speed of sound, 298.15 K [m/s]	viscosity, 298.15 K [mPa·s]	viscosity, 308.15 K [mPa·s]	viscosity, 318.15 K [mPa·s]
x2 = 0	1046 ± 2	1039 ± 3	1032 ± 3	–	3.478 ± 0.31	2.688 ± 0.24	2.296 ± 0.21
x2 = 0.2168	1017 ± 2	1011 ± 2	–	–	2.014 ± 0.18	1.698 ± 0.16	–
x2 = 0.217	–	–	1009 ± 3	1487.6 ± 12	–	–	1.456 ± 0.14
x2 = 0.3837	990 ± 2	985 ± 2	–	–	1.4 ± 0.13	1.215 ± 0.12	–
x2 = 0.384	–	–	983 ± 3	1433.3 ± 11	–	–	1.078 ± 0.11
x2 = 0.516	–	–	957 ± 2	1403 ± 11	–	–	0.83 ± 0.084
x2 = 0.5163	964 ± 2	958 ± 2	–	–	1.02 ± 0.1	0.906 ± 0.091	–
x2 = 0.624	–	–	930 ± 2	1372 ± 11	–	–	0.684 ± 0.072
x2 = 0.6241	937 ± 2	931 ± 2	–	–	0.795 ± 0.081	0.724 ± 0.075	–
x2 = 0.7135	911 ± 2	905 ± 2	–	–	0.646 ± 0.068	0.603 ± 0.065	–
x2 = 0.714	–	–	904 ± 2	1330.3 ± 11	–	–	0.581 ± 0.063
x2 = 0.7889	886 ± 2	881 ± 2	–	–	0.56 ± 0.061	0.519 ± 0.057	–
x2 = 0.789	–	–	878 ± 2	1288.7 ± 10	–	–	0.457 ± 0.052
x2 = 0.853	–	–	854 ± 2	1251.2 ± 10	–	–	0.43 ± 0.05
x2 = 0.8532	862 ± 2	856 ± 2	–	–	0.474 ± 0.053	0.441 ± 0.051	–
x2 = 0.9088	839 ± 2	833 ± 2	–	–	0.423 ± 0.049	0.405 ± 0.047	–
x2 = 0.909	–	–	830 ± 2	1224.1 ± 10	–	–	0.394 ± 0.047
x2 = 0.957	–	–	805 ± 2	1186.8 ± 9.9	–	–	0.348 ± 0.043
x2 = 0.9573	817 ± 2	810 ± 2	–	–	0.388 ± 0.046	0.359 ± 0.044	–

C=CC#N [acrylonitrile]
[1]
Conditions	mass density [kg/m3]	viscosity [mPa·s]
298.15 K	794 ± 2	0.344 ± 0.042
308.15 K	788 ± 2	0.307 ± 0.039
318.15 K	783 ± 2	0.284 ± 0.037

C=CC#N [acrylonitrile] + COc1ccc(C=O)cc1
[2], x1 = 1
Conditions	mass density [kg/m3]	viscosity [mPa·s]
298.15 K	794 ± 2	0.344 ± 0.042
308.15 K	788 ± 2	0.307 ± 0.039
318.15 K	783 ± 2	0.284 ± 0.037

C=CC#N [acrylonitrile] + O=CC=Cc1ccccc1
[2], x1 = 1
Conditions	mass density [kg/m3]	viscosity [mPa·s]
298.15 K	794 ± 2	0.344 ± 0.042
308.15 K	788 ± 2	0.307 ± 0.039
318.15 K	783 ± 2	0.284 ± 0.037

C=CC#N [acrylonitrile] + O=Cc1ccccc1
[2]
Conditions	mass density, 298.15 K [kg/m3]	mass density, 308.15 K [kg/m3]	mass density, 318.15 K [kg/m3]	speed of sound, 298.15 K [m/s]	viscosity, 298.15 K [mPa·s]	viscosity, 308.15 K [mPa·s]	viscosity, 318.15 K [mPa·s]
x1 = 0.182	1022 ± 2	1011 ± 2	1005 ± 3	1412.7 ± 11	1.224 ± 0.12	1.071 ± 0.11	0.973 ± 0.096
x1 = 0.333	995 ± 2	985 ± 2	980 ± 3	1394.7 ± 11	1.079 ± 0.11	0.941 ± 0.094	0.851 ± 0.086
x1 = 0.462	969 ± 2	959 ± 2	954 ± 2	1353.1 ± 11	0.958 ± 0.095	0.827 ± 0.084	0.746 ± 0.077
x1 = 0.571	940 ± 2	932 ± 2	928 ± 2	1322.4 ± 11	0.842 ± 0.085	0.724 ± 0.075	0.653 ± 0.069
x1 = 0.667	914 ± 2	906 ± 2	902 ± 2	1292.8 ± 11	0.74 ± 0.076	0.63 ± 0.067	0.571 ± 0.062
x1 = 0.75	887 ± 2	880 ± 2	877 ± 2	1259.4 ± 10	0.649 ± 0.069	0.55 ± 0.06	0.5 ± 0.056
x1 = 0.824	863 ± 2	856 ± 2	854 ± 2	1237.6 ± 10	0.565 ± 0.061	0.478 ± 0.054	0.436 ± 0.05
x1 = 0.889	839 ± 2	833 ± 2	830 ± 2	1212 ± 10	0.484 ± 0.054	0.416 ± 0.048	0.379 ± 0.045
x1 = 0.947	816 ± 2	810 ± 2	806 ± 2	1186.8 ± 9.9	0.41 ± 0.048	0.358 ± 0.043	0.328 ± 0.041
x1 = 1	794 ± 2	788 ± 2	783 ± 2	–	0.344 ± 0.042	0.307 ± 0.039	0.284 ± 0.037

O=Cc1ccccc1 [benzaldehyde]
[1]
Conditions	mass density [kg/m3]	viscosity [mPa·s]
298.15 K	1041 ± 2	1.399 ± 0.13
308.15 K	1034 ± 2	1.224 ± 0.12
318.15 K	1027 ± 3	1.12 ± 0.11

O=Cc1ccccc1 [benzaldehyde] + C=CC#N
[2], x2 = 0
Conditions	mass density [kg/m3]	viscosity [mPa·s]
298.15 K	1041 ± 2	1.399 ± 0.13
308.15 K	1034 ± 2	1.224 ± 0.12
318.15 K	1027 ± 3	1.12 ± 0.11
